pIC50: −log10 of the molar value.
Biological target: T1, LPA2R (Homo sapiens, UniProt Q9HBW0)
T1 construct: expressed in transfected cells; host or cells: U2OS
Test: LPA2R-Calciumflux assay (FLIPR, intracellular calcium mobilisation after LPA)
Type: cell-based
Conditions: U2OS cells recombinant expressing LPA2R; antagonism of LPA-induced calcium flux; racemate of the two trans enantiomers unless marked enantiomer
Description: The assay detects intra cellular calcium which is generated by cells upon activation of the LPA2 receptor by its ligand LPA. This transient calcium mobilization can be monitored using a commercial calcium detection kit (e.g. from Molecular Devices). The main component of such a kit is a dye, which becomes fluorescent when calcium is present—a transient fluorescence signal after addition of a ligand to a test well are the result. Readers like the FLIPR (Molecular Devices) can be used to monitor such transient “Ca-flux” signals.
The signals are calculated according to peak maximum minus base line.
Compounds which are antagonists of LPA lead to a decreased mobilisation of intracellular calcium and thus to a lower signal. The assay is performed in microplates (384 wells per plate).
LPA2R-Calciumflux Assay Protocol
The assay is run according to the following procedure:
50 uL seed cells (10000 cells/well in DMEM buffer)
• Incubate 24 h at 37° C., 10% CO2 • aspirate medium 50 uL add calcium dye 1×HBSS/HEPES buffer • incubate 1 h at 37° C. (“loading”) • equilibrate 10 min at RT 5 uL add compounds in HEPES buffer • shake 10 sec. at 1000 rpm • incubate 15 min at RT 20 uL add LPA (in the FLIPR Tetra) in Krebs-buffer/BSA & measurement
The cells are seeded in DMEM buffer (DMEM, 10% FCS, 10 mM HEPES, 1% Pen/Strep).
Dye loading is done in HBSS/HEPES buffer (100 mL 10×HBSS+20 mL 1M HEPES+880 mL water, pH 7.4)
The LPA is added in Krebs/BSA buffer (120 mM NaCl, 5 mM KCl, 0.62 mM MgSO4, 1.8 mM CaCl2, 10 mM HEPES, 6 mM D(+)-Glucose, 0.2% BSA, pH 7.4).
The compounds are pre-diluted in HEPES buffer (20 mM, pH 7.4), whereby the final DMSO content in the assay is kept at 1%. The compounds are pre-diluted in order to generate dose response series on the microplates. The dose response series consist of 10 concentrations for each compound from 30 uM final to 1 nM final. From all compound wells the resulting signals are referred to control wells (located on each plate besides the compound wells) in terms of % activity.
From these % activity values—along with the corresponding compound concentrations—IC50 values are fitted for each compound using standard fitting programs such as Graphpad Prism. Here the method “log(inhibitor) vs. response—Variable slope” is used.

T1 sequence (Q9HBW0 whole entry): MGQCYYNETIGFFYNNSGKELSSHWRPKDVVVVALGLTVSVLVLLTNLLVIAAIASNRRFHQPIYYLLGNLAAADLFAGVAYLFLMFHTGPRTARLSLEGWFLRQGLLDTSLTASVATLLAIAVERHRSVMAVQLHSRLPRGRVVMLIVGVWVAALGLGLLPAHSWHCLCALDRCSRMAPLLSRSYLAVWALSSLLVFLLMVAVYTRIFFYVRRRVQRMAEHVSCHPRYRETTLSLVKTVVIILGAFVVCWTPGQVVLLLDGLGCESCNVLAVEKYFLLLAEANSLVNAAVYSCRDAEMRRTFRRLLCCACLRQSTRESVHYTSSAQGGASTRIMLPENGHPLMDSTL

SMILES	pIC50
O=C(Nc1nc2ccc(C(F)(F)F)cc2[nH]1)C1CC1c1ccccc1Cl (racemic) [2-(2-Chloro-phenyl)-cyclopropane-carboxylic acid (6-trifluoromethyl-1H-benzoimidazol-2-yl)-amide]	7.00 to 8.00
O=C(Nc1nc2c([N+](=O)[O-])cccc2[nH]1)C1CC1c1ccccc1 (racemic) [2-Phenyl-cyclopropane-carboxylic acid (4-nitro-1H-benzoimidazol-2-yl)-amide]	7.00 to 8.00
O=C(Nc1nc2c(NCC3CCN(Cc4ccccc4)CC3)cccc2[nH]1)C1CC1c1ccccc1 (racemic) [2-Phenyl-cyclopropane-carboxylic acid {4-[(1-benzyl-piperidin-4-ylmethyl)-amino]-1H-benzoimidazol-2-yl}-amide]	5.00 to 6.00
O=C(Nc1nc2cc(Cl)ccc2[nH]1)C1CC1c1ccccc1 (racemic) [2-Phenyl-cyclopropane-carboxylic acid (6-chloro-1H-benzoimidazol-2-yl)-amide]	7.00 to 8.00
CCc1ccc2[nH]c(NC(=O)C3CC3c3ccccc3)nc2c1 (racemic) [2-Phenyl-cyclopropane-carboxylic acid (5-ethyl-1H-benzoimidazol-2-yl)-amide]	7.00 to 8.00
COc1ccc2[nH]c(NC(=O)C3CC3c3ccccc3)nc2c1 (racemic) [2-Phenyl-cyclopropane-carboxylic acid (5-methoxy-1H-benzoimidazol-2-yl)-amide]	7.00 to 8.00
O=C(Nc1nc2ccccc2[nH]1)C1CC1c1ccc(C(F)(F)F)cc1 (racemic) [2-(4-Trifluoromethyl-phenyl)-cyclopropane-carboxylic acid (1H-benzoimidazol-2-yl)-amide]	5.00 to 6.00
COc1ccc(C2CC2C(=O)Nc2nc3ccccc3[nH]2)cc1 (racemic) [2-(4-Methoxy-phenyl)-cyclopropane-carboxylic acid (1H-benzoimidazol-2-yl)-amide]	5.00 to 6.00
N#Cc1ccc2nc(NC(=O)C3CC3c3ccccc3)[nH]c2c1 (racemic) [2-Phenyl-cyclopropane-carboxylic acid (5-cyano-1H-benzoimidazol-2-yl)-amide]	7.00 to 8.00
